# Measurements reported in paper PMC7940574 (Angewandte Chemie (International ed. in English), 2021).
# Tested on: A549 cells
# Experiment: Flow cytometry annexin V / propidium iodide in A549 cells
# Format: cell-based, human
# Conditions: 15 μM gefitinib
structure (smiles),measurement,value
COc1cc2ncnc(Nc3ccc(F)c(Cl)c3)c2cc1OCCCN1CCOCC1 [gefitinib],mode of cytotoxicity (annexin V vs propidium iodide),early apoptosis
